Laboratory results published in patent publication US4220587A, “Amino acid derivatives of 6-(2-amino-2-arylacetamido)penicillanic acids” (Mitsubishi Chemical Industries, Limited, priority 1975, dated 1980).
Converted amounts (≈) assume the structure as drawn. Where two headings read alike, the source gives them in different places.

Assays:
Type in all cases: cell-based
Staph. aureus (FDA 209P) = test: MIC, agar dilution, Staph. aureus; details: Staphylococcus aureus, FDA209P, 20 h, read-out: Minimum Inhibitory Concentration (MIC)
Method: (§1) The compounds of this invention were tested for antibacterial activity according to the following procedure. Nutrient broth and nutrient agar were prepared according to the conventional procedure. […] was used as a vehicle. The stock solution was prepared at 100 μg/ml of the test material in the vehicle. Two-fold dilutions were made with the vehicle and then the diluted stock solution was added to a petri dish and solidified by chilling. Test organisms were grown in the nutrient broth for 20 hours at 37° C. The hardened surface was inoculated with a loopful of the test organism solution containing 1×10^6 cells per milliliter and incubated for 20 hours at 37° C. At the end of this period, growth of the organism was observed. […] The following Table 1 summarizes the activity of representative compounds as active antibacterial agents, and compares them with the prior art compounds and the reference drug Sulbenicillin.

E. coli (NIHJ) = test: MIC, agar dilution, E. coli; details: Escherichia coli, 20 h, read-out: Minimum Inhibitory Concentration (MIC)
Method: as §1

[1] = tested on: Proteus morgani (IFO 3848); test: MIC, agar dilution, Proteus morgani; details: Morganella morganii, IFO3848, 20 h, read-out: Minimum Inhibitory Concentration (MIC)
Method: as §1

[2] = tested on: Proteus mirabilis (IFO 3849); test: MIC, agar dilution, Proteus mirabilis; details: Proteus mirabilis, IFO3849, 20 h, read-out: Minimum Inhibitory Concentration (MIC)
Method: as §1

[3] = tested on: Proteus vulgaris (IFO 3045); test: MIC, agar dilution, Proteus vulgaris; details: Proteus vulgaris, IFO3045, 20 h, read-out: Minimum Inhibitory Concentration (MIC)
Method: as §1

Pseudomonas aeruginosa = test: MIC, agar dilution, Pseudomonas aeruginosa (strain not given); details: ATCC 15691 / ATCC 15692, 20 h, read-out: Minimum Inhibitory Concentration (MIC)
Method: as §1

[4] = tested on: Salmonella typhimurium (TA 100); test: MIC, agar dilution, Salmonella typhimurium; details: Salmonella enterica, read-out: Minimum Inhibitory Concentration (MIC)
Method: as §1

[5] = tested on: Pseudomonas aeruginosa M-16; test: MIC, agar dilution, Pseudomonas aeruginosa M-16; details: M16, 20 h, read-out: Minimum Inhibitory Concentration (MIC)
Method: as §1
^*3 streptomycin, chloramphenicol and mercury resistant strain derive

[6] = tested on: Klebsiella pneumoniae (ATCC 25955); test: MIC, agar dilution, Klebsiella pneumoniae; details: Klebsiella pneumoniae, ATCC25955, 20 h, read-out: Minimum Inhibitory Concentration (MIC)
Method: as §1

[7] = tested on: Pseudomonas aeruginosa (ATCC 15691); test: MIC, agar dilution, Pseudomonas aeruginosa ATCC 15691; details: ATCC15691, 20 h, read-out: Minimum Inhibitory Concentration (MIC)
Method: as §1

[8] = tested on: Pseudomonas aeruginosa M-12; test: MIC, agar dilution, Pseudomonas aeruginosa M-12; details: ATCC15692, 20 h, read-out: Minimum Inhibitory Concentration (MIC)
Method: as §1
^*2 chloramphenicol resistant strain derived from Pseudomonas

[9] = Salmonella typhimurium TA 100, ampicillin resistant strain, nutrient agar, 20 hours at 37° C.

SMILES	MIC (Staph. aureus (FDA 209P)) [µg/mL]	MIC (E. coli (NIHJ)) [µg/mL]	MIC [1] [µg/mL]	MIC [2] [µg/mL]	MIC [3] [µg/mL]	also measured
CC1(C)S[C@@H]2[C@H](NC(=O)[C@H](NC(=O)[C@@H]3CCCN3C(=O)OCc3ccccc3)c3ccc(O)cc3)C(=O)N2[C@H]1C(=O)O [Compound 6]	1.25 (≈ 2.09 µM)	–	–	–	–	–
CN[C@H](C)C(=O)N[C@@H](C(=O)N[C@@H]1C(=O)N2[C@@H]1SC(C)(C)[C@@H]2C(=O)O)c1ccc(O)cc1 [Compound 21]	1.87 (≈ 4.15 µM)	12.3 (≈ 27.3 µM)	3.1 (≈ 6.88 µM)	6.2 (≈ 13.8 µM)	4.7 (≈ 10.4 µM)	–
CC1(C)S[C@@H]2[C@H](NC(=O)[C@H](NC(=O)C3Cc4ccccc4CN3)c3ccccc3)C(=O)N2[C@H]1C(=O)O (some centres unmarked) [Compound 16]	0.46 (≈ 0.904 µM)	–	–	–	–	–
CC1(C)S[C@@H]2[C@H](NC(=O)[C@H](NC(=O)[C@H]3CCCN3C(=O)OCc3ccccc3)c3ccccc3)C(=O)N2[C@H]1C(=O)O [Compound 2, potassium 6-[D-2-(N-benzyloxycarbonyl-D-prolyl)amino-2-phenylacetamido]penicillanatemonohydrate]	1.25	–	–	–	–	–
CC1(C)S[C@@H]2[C@H](NC(=O)[C@H](NC(=O)C3CCCCN3)c3ccccc3)C(=O)N2[C@H]1C(=O)O (some centres unmarked) [Compound 13]	3.75 (≈ 8.14 µM)	–	–	–	–	–
Cc1ccc(S(=O)(=O)N(C)C(C)C(=O)N[C@@H](C(=O)N[C@@H]2C(=O)N3[C@@H]2SC(C)(C)[C@@H]3C(=O)O)c2ccccc2)cc1 (some centres unmarked) [Compound 19]	0.15 (≈ 0.255 µM)	25 (≈ 42.5 µM)	12.5 (≈ 21.2 µM)	12.5 (≈ 21.2 µM)	12.5 (≈ 21.2 µM)	MIC (Pseudomonas aeruginosa): 37 µg/mL (≈ 62.8 µM); MIC ([4]; TYPHIMURIUM, 20 h): 9 µg/mL (≈ 15.3 µM)
Cc1ccc(S(=O)(=O)N(C)CC(=O)N[C@@H](C(=O)N[C@@H]2C(=O)N3[C@@H]2SC(C)(C)[C@@H]3C(=O)O)c2ccccc2)cc1 [Compound 22]	0.31 (≈ 0.539 µM)	25 (≈ 43.5 µM)	12.5 (≈ 21.8 µM)	23 (≈ 40 µM)	25 (≈ 43.5 µM)	MIC (Pseudomonas aeruginosa): 25 µg/mL (≈ 43.5 µM)
CC1(C)S[C@@H]2[C@H](NC(=O)[C@H](NC(=O)[C@H]3CCN3)c3ccc(O)cc3)C(=O)N2[C@H]1C(=O)O [Compound 29]	5 (≈ 11.1 µM)	18.7 (≈ 41.7 µM)	3.1 (≈ 6.91 µM)	3.1 (≈ 6.91 µM)	3.1 (≈ 6.91 µM)	MIC (Pseudomonas aeruginosa): 37.5 µg/mL (≈ 83.6 µM)
Cc1ccc(S(=O)(=O)N(C)[C@H](CC(C)C)C(=O)N[C@@H](C(=O)N[C@@H]2C(=O)N3[C@@H]2SC(C)(C)[C@@H]3C(=O)O)c2ccccc2)cc1 [Compound 23]	0.62 (≈ 0.983 µM)	–	–	–	–	–
CC1(C)S[C@@H]2[C@H](NC(=O)[C@H](NC(=O)[C@H]3CCN3)c3ccccc3)C(=O)N2[C@H]1C(=O)O [Compound 28]	3.75 (≈ 8.67 µM)	50 (≈ 116 µM)	12.5 (≈ 28.9 µM)	6.2 (≈ 14.3 µM)	6.2 (≈ 14.3 µM)	MIC (Pseudomonas aeruginosa): 25 µg/mL (≈ 57.8 µM)
CC1(C)S[C@@H]2[C@H](NC(=O)[C@H](NC(=O)[C@H]3CCCCN3C(=O)OCc3ccccc3)c3ccccc3)C(=O)N2[C@H]1C(=O)O [Compound 9]	0.62 (≈ 1.04 µM)	–	–	–	–	–
CC1(C)S[C@@H]2[C@H](NC(=O)[C@H](NC(=O)C3CCCCN3C(N)=O)c3ccccc3)C(=O)N2[C@H]1C(=O)O (some centres unmarked) [Compound 11]	0.31 (≈ 0.616 µM)	–	–	–	–	–
CC1(C)S[C@@H]2[C@H](NC(=O)[C@H](NC(=O)[C@H]3CCCN3)c3ccccc3)C(=O)N2[C@H]1C(=O)O [Compound 1]	0.45 (≈ 1.01 µM)	6.2 (≈ 13.9 µM)	3.1 (≈ 6.94 µM)	1.5 (≈ 3.36 µM)	1.5 (≈ 3.36 µM)	MIC [5]: 3.1 µg/mL (≈ 6.94 µM); MIC [6]: 50 µg/mL (≈ 112 µM); MIC [7]: 12.5 µg/mL (≈ 28 µM); MIC [8]: 3.1 µg/mL (≈ 6.94 µM)
Cc1ccc(S(=O)(=O)N(C)[C@@H](C(=O)N[C@@H](C(=O)N[C@@H]2C(=O)N3[C@@H]2SC(C)(C)[C@@H]3C(=O)O)c2ccccc2)c2ccccc2)cc1 [Compound 26]	0.62 (≈ 0.953 µM)	–	–	–	–	–
Cc1ccc(S(=O)(=O)N(C)[C@H](C)C(=O)N[C@@H](C(=O)N[C@@H]2C(=O)N3[C@@H]2SC(C)(C)[C@@H]3C(=O)O)c2ccccc2)cc1 [Compound 17]	0.15 (≈ 0.255 µM)	25 (≈ 42.5 µM)	9 (≈ 15.3 µM)	12.5 (≈ 21.2 µM)	12.5 (≈ 21.2 µM)	MIC (Pseudomonas aeruginosa): 25 µg/mL (≈ 42.5 µM); MIC [4, 9]: 12.5 µg/mL (≈ 21.2 µM)
CC1(C)S[C@@H]2[C@H](NC(=O)[C@H](NC(=O)[C@H]3CCCCN3)c3ccccc3)C(=O)N2[C@H]1C(=O)O [Compound 12]	1.25 (≈ 2.71 µM)	–	–	–	–	–
CC1(C)S[C@@H]2[C@H](NC(=O)[C@H](NC(=O)[C@H]3CCCCN3C(=O)OCc3ccccc3)c3ccc(O)cc3)C(=O)N2[C@H]1C(=O)O [Compound 8]	1.25 (≈ 2.05 µM)	–	–	–	–	–
CC1(C)S[C@@H]2[C@H](NC(=O)[C@H](NC(=O)[C@H]3CCCN3C(=O)OCc3ccccc3)c3ccc(O)cc3)C(=O)N2[C@H]1C(=O)O [Compound 5]	2.5 (≈ 4.19 µM)	–	–	–	–	–
CC1(C)S[C@@H]2[C@H](NC(=O)[C@H](NC(=O)C3NCc4ccccc43)c3ccccc3)C(=O)N2[C@H]1C(=O)O (some centres unmarked) [Compound 14]	0.31 (≈ 0.627 µM)	–	–	–	–	–
CN(C(=O)OCc1ccccc1)[C@@H](C(=O)N[C@@H](C(=O)N[C@@H]1C(=O)N2[C@@H]1SC(C)(C)[C@@H]2C(=O)O)c1ccccc1)c1ccccc1 [Compound 25]	3.62 (≈ 5.74 µM)	50 (≈ 79.3 µM)	25 (≈ 39.6 µM)	25 (≈ 39.6 µM)	25 (≈ 39.6 µM)	MIC [4, 9]: 12.5 µg/mL (≈ 19.8 µM)
CN[C@H](C)C(=O)N[C@@H](C(=O)N[C@@H]1C(=O)N2[C@@H]1SC(C)(C)[C@@H]2C(=O)O)c1ccccc1 [Compound 20]	1.87 (≈ 4.3 µM)	25 (≈ 57.5 µM)	9.3 (≈ 21.4 µM)	9.3 (≈ 21.4 µM)	6.2 (≈ 14.3 µM)	MIC (Pseudomonas aeruginosa): 37.5 µg/mL (≈ 86.3 µM)
CC(C)C[C@H](C(=O)N[C@@H](C(=O)N[C@@H]1C(=O)N2[C@@H]1SC(C)(C)[C@@H]2C(=O)O)c1ccccc1)N(C)C(=O)OCc1ccccc1 [Compound 24]	0.62 (≈ 1.02 µM)	50 (≈ 81.9 µM)	100 (≈ 164 µM)	100 (≈ 164 µM)	100 (≈ 164 µM)	MIC (Pseudomonas aeruginosa): 100 µg/mL (≈ 164 µM); MIC ([4]; TYPHIMURIUM, 20 h): < 6.25 µg/mL
CC1(C)S[C@@H]2[C@H](NC(=O)[C@H](NC(=O)[C@H]3CCCCN3C(N)=O)c3ccccc3)C(=O)N2[C@H]1C(=O)O [Compound 10]	0.31 (≈ 0.616 µM)	–	–	–	–	–
CN[C@H](CC(C)C)C(=O)N[C@@H](C(=O)N[C@@H]1C(=O)N2[C@@H]1SC(C)(C)[C@@H]2C(=O)O)c1ccccc1 [Compound 27]	0.62 (≈ 1.3 µM)	–	–	–	–	–
CC1(C)S[C@@H]2[C@H](NC(=O)[C@H](NC(=O)[C@H]3CCCCN3)c3ccc(O)cc3)C(=O)N2[C@H]1C(=O)O [Compound 7]	1.25 (≈ 2.62 µM)	25 (≈ 52.5 µM)	< 6.2	9 (≈ 18.9 µM)	< 6.2	MIC [6]: 9 µg/mL (≈ 18.9 µM)
Cc1ccc(S(=O)(=O)N(C)[C@H](C)C(=O)N[C@@H](C(=O)N[C@@H]2C(=O)N3[C@@H]2SC(C)(C)[C@@H]3C(=O)O)c2ccc(O)cc2)cc1 [Compound 18]	0.31 (≈ 0.513 µM)	–	–	–	–	–
